Test results as given in article PMC10321576, “Cyclic peptides target the aromatic cage of a PHD-finger reader domain to modulate epigenetic protein function” (Chemical Science, 2023).
Peptide text beside a SMILES is read from it.

Assays:
KDM7A dual domain = KDM7A dual domain (Homo sapiens, UniProt Q6ZMT4); assay: MALDI-TOF-MS KDM7 activity assay (H3 peptide demethylation); format: biochemical; details: from <5% without OC9
Procedure: Fig. 5 KDM7 PHD-finger inhibition by OC9 modulates dual domain JmjC activity. (a) (i–iii) OC9 inhibits demethylation of H3K9me2, with or without K4me3, by KDM7B (0.4 μM) on H3 peptide (2.5 μM). […] (b) (i–iii) OC9 enhances demethylation of H3K4me3K9me2 by KDM7A (0.55 μM) on H3 peptide (2.5 μM), and (iv) enhances KDM7A (0.5 μM) demethylation of calf histone extracts (50 μg). […] Inset MALDI-TOF-MS overlays are from respective highest OC9 concentration points compared to DMSO alone. KDM7 PHD-finger only proteins had no demethylase activity (Fig. S40 ^†). Calf histone H3K9me2 was quantitated relative to H4 band intensities at each time point, normalised to DMSO at t = 0. Full Western blots available in Fig. S42. ^† Relative rates (Krel min^−1) from a one-phase decay model, average from N = 3 independent experiments. […] The enzyme heading of the panel (KDM7B / KDM7A) was put in front of them. / DMSO is the vehicle control. Its printed rates (0.30 min^-1 in a, 0.04 min^-1 in b) are included because they are printed with its name.
In contrast to KDM7B, KDM7A lacks activity against H3K4me3K9me2, but demethylates H3_1–21K9me2.[57] OC9, however, restored the activity of KDM7A against H3_1–21K4me3K9me2 from <5% to a level (∼30%) that approached demethylation on H3_1–21K9me2 with DMSO alone (∼40%) (Fig. 5b and S39 ^†). […]

Caco-2 cell = assay: Cell permeability measurement (Caco-2); format: in vitro ADME
KDM7C PHD = biological target: T1, KDM7C PHD (Homo sapiens, UniProt O75151); assay: BLI binding; details: 1:1 binding model
T1 construct: KDM7C 1-67; made in house
T1 sequence (O75151 1-67): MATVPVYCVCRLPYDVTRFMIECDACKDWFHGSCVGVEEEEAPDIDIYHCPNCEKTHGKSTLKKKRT
Excerpt: (§1) Figure S2. BLI for KDM7 proteins with cyclic peptides.
(§2) BLI traces for b inding to KDM7 protein domains immobilised by C-terminal His -tag on Ni -NTA
(§3) biosensors, against cyclic peptides. Response trace for each peptide concentration is represented by
(§4) a different colour, with the fitted curves overlaid in black.
(§5) concentration plotted, with 2-fold dilutions thereafter. Dual domain = PHD+JmjC. […]
(§6) against KDM7 and other protein domains. t1/2 = half life (0.693 / Koff)
(§7) (1 picture or pasted object on this page, not shown here)

KDM7A PHD [1] = biological target: T2, KDM7A PHD (Homo sapiens, UniProt Q6ZMT4); assay: BLI binding; details: 1:1 binding model
T2 construct: KDM7A 38-98; made in house
T2 sequence (Q6ZMT4 38-98): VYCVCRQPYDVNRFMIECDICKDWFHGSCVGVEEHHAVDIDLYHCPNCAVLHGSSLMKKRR
Excerpt: as §1, §2, §3, §4, §5, §6, §7

KDM7A Dual (PHD+JmjC) = KDM7A Dual (PHD+JmjC) (Homo sapiens, UniProt Q6ZMT4); assay: BLI binding; details: 1:1 binding model
Sequence of KDM7A Dual (PHD+JmjC) (Q6ZMT4 38-386 limits assumed): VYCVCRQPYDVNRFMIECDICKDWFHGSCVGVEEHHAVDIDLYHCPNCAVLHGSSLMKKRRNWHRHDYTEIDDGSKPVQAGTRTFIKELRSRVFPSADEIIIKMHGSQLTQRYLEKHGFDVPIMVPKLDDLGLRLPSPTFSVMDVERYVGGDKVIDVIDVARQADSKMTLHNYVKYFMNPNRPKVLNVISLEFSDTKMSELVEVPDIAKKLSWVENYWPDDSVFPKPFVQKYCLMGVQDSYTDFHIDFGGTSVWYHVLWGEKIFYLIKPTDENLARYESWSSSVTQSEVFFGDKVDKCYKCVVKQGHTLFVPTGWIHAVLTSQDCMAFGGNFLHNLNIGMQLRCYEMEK
Excerpt: as §1, §2, §3, §4, §5, §6, §7

KDM7C Dual (PHD+JmjC) = KDM7C Dual (PHD+JmjC) (Homo sapiens, UniProt O75151); assay: BLI binding; details: 1:1 binding model
Sequence of KDM7C Dual (PHD+JmjC) (O75151 1-353 limits assumed): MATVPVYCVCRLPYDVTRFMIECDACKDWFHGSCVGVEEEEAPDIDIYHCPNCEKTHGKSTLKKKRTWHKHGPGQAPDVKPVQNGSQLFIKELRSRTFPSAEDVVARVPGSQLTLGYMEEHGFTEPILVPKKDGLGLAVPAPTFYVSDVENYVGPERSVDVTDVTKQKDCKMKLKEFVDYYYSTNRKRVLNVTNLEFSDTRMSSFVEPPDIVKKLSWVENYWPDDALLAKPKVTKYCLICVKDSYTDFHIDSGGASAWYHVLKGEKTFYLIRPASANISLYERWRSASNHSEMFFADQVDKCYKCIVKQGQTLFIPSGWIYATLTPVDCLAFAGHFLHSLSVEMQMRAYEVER
Excerpt: as §1, §2, §3, §4, §5, §6, §7

KDM5A PHD3 = biological target: T3, KDM5A PHD3 (Homo sapiens, UniProt P29375); assay: AlphaScreen displacement of H3 1-21K4me3-Bt; format: binding; details: once at least in duplicate (Fig. 3c)
T3 construct: KDM5A PHD3
T3 sequence (P29375 1607-1661 limits assumed): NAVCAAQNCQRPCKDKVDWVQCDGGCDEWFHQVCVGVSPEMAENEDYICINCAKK
Excerpt: (§8) (14 pictures or pasted objects on this page, not shown here)

TAF3 PHD = biological target: T4, TAF3 PHD (Homo sapiens, UniProt Q5VWG9); assay: AlphaScreen displacement of H3 1-21K4me3-Bt; format: binding; details: once at least in duplicate (Fig. 3c)
T4 construct: TAF3 PHD
T4 sequence (Q5VWG9 865-915 limits assumed): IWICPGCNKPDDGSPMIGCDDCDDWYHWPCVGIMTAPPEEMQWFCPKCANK
Excerpt: as §8

DIDO PHD = biological target: T5, DIDO PHD (Homo sapiens, UniProt Q9BTC0); assay: AlphaScreen displacement of H3 1-21K4me3-Bt; format: binding; details: average of two independent experiments
T5 construct: DIDO PHD
T5 sequence (Q9BTC0 268-322 limits assumed): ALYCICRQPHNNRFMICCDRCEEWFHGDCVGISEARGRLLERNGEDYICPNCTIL
Excerpt: as §8

ING2 PHD = biological target: T6, ING2 PHD (Homo sapiens, UniProt Q9H160); assay: AlphaScreen displacement of H3 1-21K4me3-Bt; format: binding; details: once at least in duplicate (Fig. 3c)
T6 construct: ING2 PHD
T6 sequence (Q9H160 212-261 limits assumed): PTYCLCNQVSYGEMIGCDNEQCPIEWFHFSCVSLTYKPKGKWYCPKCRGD
Excerpt: as §8

SPIN1 TTD = SPIN1 TTD (Homo sapiens, UniProt Q9Y657); assay: AlphaScreen displacement of H3 1-21K4me3-Bt; format: binding; details: once at least in duplicate (Fig. 3c)
Sequence of SPIN1 TTD (Q9Y657 53-262 limits assumed): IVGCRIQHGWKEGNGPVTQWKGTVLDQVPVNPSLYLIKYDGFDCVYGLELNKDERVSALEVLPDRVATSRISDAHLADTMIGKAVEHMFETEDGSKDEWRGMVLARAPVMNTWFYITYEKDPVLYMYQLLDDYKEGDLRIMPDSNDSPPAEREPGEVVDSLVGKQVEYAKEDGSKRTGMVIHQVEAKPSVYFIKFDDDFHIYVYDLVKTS
Excerpt: as §8

KDM7B JmjC = biological target: T7, KDM7B JmjC (Homo sapiens, UniProt Q9UPP1); assay: BLI binding; parameters: key to BLI Screening, KDM7B JmjC: (+) = binding; (-) = no binding; (NS) = non-specific
T7 construct: made in house
T7 sequence (Q9UPP1 231-387 limits assumed): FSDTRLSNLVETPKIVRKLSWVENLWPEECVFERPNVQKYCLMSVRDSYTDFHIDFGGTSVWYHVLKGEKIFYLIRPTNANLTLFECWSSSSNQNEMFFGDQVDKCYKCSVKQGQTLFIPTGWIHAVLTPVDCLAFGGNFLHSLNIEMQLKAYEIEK
Excerpt: as §1, §2, §3, §4, §5, §6, §7

KDM7B PHD+JmjC = biological target: T8, KDM7B PHD+JmjC (Homo sapiens, UniProt Q9UPP1); assay: AlphaScreen displacement of H3 1-21K4me3-Bt; format: binding; details: average of two independent experiments
T8 construct: dual domain (PHD-JmjC) of KDM7B; made in house
T8 sequence (Q9UPP1 37-483 limits assumed): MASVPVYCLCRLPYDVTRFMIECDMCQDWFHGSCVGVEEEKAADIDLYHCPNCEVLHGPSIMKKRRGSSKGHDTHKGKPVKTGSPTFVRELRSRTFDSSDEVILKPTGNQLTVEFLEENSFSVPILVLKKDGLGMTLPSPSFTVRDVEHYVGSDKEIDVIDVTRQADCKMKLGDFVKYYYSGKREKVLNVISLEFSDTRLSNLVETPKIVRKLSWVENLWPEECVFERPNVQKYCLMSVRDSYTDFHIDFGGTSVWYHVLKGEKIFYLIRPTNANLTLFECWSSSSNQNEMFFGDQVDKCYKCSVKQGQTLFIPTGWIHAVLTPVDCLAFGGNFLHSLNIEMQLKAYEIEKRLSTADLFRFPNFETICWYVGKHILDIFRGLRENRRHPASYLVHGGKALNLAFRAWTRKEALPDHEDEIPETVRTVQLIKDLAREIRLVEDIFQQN
Excerpt: (§9) The functional effect of OC9 on the PHD-finger was further assessed using an AlphaScreen (AS) based proximity assay. […]

KDM7A PHD [2] = biological target: T2, KDM7A PHD; assay: AlphaScreen displacement of H3 1-21K4me3-Bt; format: binding; details: average of two independent experiments
Excerpt: as §9

KDM2/3/4/5/6 = assay: KDM selectivity screening by MALDI-TOF-MS; format: biochemical; details: histone peptide substrates; incl. full-length KDM2A and KDM2B
Excerpt: The panel included full-length recombinant KDM2A and KDM2B which have the closest JmjC-domains to KDM7s, but with unrelated PHD-fingers (Fig. S43 and S44 ^†).

[3] = His-tagged protein on Ni-NTA biosensors

Sequence of KDM7A dual domain (Q6ZMT4 38-480 limits assumed): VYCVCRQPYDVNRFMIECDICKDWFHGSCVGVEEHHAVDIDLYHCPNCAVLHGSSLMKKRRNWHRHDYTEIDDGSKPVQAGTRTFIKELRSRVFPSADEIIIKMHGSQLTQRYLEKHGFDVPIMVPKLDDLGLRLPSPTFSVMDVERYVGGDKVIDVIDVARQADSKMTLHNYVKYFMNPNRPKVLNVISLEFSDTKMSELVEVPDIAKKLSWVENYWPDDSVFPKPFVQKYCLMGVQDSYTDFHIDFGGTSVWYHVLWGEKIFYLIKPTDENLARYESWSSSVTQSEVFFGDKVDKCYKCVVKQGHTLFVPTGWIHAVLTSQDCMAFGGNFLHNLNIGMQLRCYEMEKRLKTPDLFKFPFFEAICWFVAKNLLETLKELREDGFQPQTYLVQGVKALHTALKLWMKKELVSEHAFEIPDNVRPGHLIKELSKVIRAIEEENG

Structure (SMILES): CC(C)C[C@@H]1NC(=O)[C@H](Cc2ccc(O)cc2)NC(=O)[C@H](Cc2ccc(O)cc2)NC(=O)CSC[C@@H](C(N)=O)NC(=O)[C@H]([C@@H](C)O)NC(=O)[C@H](CCCNC(=N)N)NC(=O)[C@H](Cc2ccccc2)NC(=O)[C@H](C(C)C)NC(=O)[C@H](CO)NC(=O)[C@@H]2CCCN2C(=O)[C@H](Cc2ccc(O)cc2)NC(=O)[C@@H]2CCCN2C(=O)[C@H](Cc2c[nH]cn2)NC(=O)[C@H]([C@@H](C)O)NC1=O [OC9] (HELM PEPTIDE1{[O=C(C[*:3])[*:2]].Y.Y.L.T.H.P.Y.P.S.V.F.R.T.C.[am]}$PEPTIDE1,PEPTIDE1,1:R3-15:R3$$$V2.0)
- activity of KDM7A against H3_1–21K4me3K9me2 restored by OC9 (demethylation level) (KDM7A dual domain): ~30%
- permeability in Caco-2 cell assay (Caco-2 cell): negligible permeability
- koff (KDM7C PHD): 0.000483 ± 2e-06 s⁻¹
- kon (KDM7C PHD): 463000 ± 2000 M⁻¹ s⁻¹
- Kd (KDM7C PHD; [3]): 1.05 nM
- koff (KDM7A PHD [1]): 0.00679 ± 2e-05 s⁻¹
- kon (KDM7A PHD [1]): 358000 ± 3000 M⁻¹ s⁻¹
- Kd (KDM7A PHD [1]; [3]): 19 nM
- koff (KDM7A Dual (PHD+JmjC)): 0.0123 ± 0.0001 s⁻¹
- kon (KDM7A Dual (PHD+JmjC)): 289000 ± 3000 M⁻¹ s⁻¹
- Kd (KDM7A Dual (PHD+JmjC); [3]): 42.5 nM
- koff (KDM7C Dual (PHD+JmjC)): 0.000137 ± 1e-06 s⁻¹
- kon (KDM7C Dual (PHD+JmjC)): 409000 ± 2000 M⁻¹ s⁻¹
- Kd (KDM7C Dual (PHD+JmjC); read-out: BLI pKD, KDM7C Dual (converted)): 0.316 nM
- IC50 (KDM5A PHD3): > 5000 nM
- IC50 (TAF3 PHD): > 5000 nM
- AlphaScreen displacement IC50, DIDO PHD (DIDO PHD): no measurable affinity
- IC50 (DIDO PHD): > 10000 nM
- IC50 (ING2 PHD): > 5000 nM
- IC50 (SPIN1 TTD): > 2000 nM
- Kd (KDM7B JmjC; 1:1 binding model, read-out: BLI pKD, KDM7B JmjC (converted)): > 1000 nM
- BLI KD, KDM7B JmjC (KDM7B JmjC; His-tagged protein on Ni-NTA biosensors, 1:1 binding model): no affinity
- BLI Screening, KDM7B JmjC (KDM7B JmjC; qualitative assessment of binding by BLI): -
- IC50 (KDM7B PHD+JmjC): 95 nM
- IC50 (KDM7A PHD [2]): 62 nM
- inhibition of other isolated KDM sub-families (KDM2/3/4/5/6) (KDM2/3/4/5/6): no significant inhibition
